Data as given in PubChem BioAssay AID1259407 (Chemical Carcinogenesis Research Information System (CCRIS), 2018).
Active and inactive are the calls of the source. How the calls were made is not given here.

Tested on: CCRIS mutagenicity, Ames/micronucleus/aberration tests
Assay: CCRIS mutagenicity studies
[1] = Test System: AMES SALMONELLA TYPHIMURIUM, Strain/Indicator: TA98, Metabolic Activation: NONE, Method: STANDARD PLATE
[2] = Test System: AMES SALMONELLA TYPHIMURIUM, Strain/Indicator: TA98, Metabolic Activation: RAT, LIVER, S-9, AROCLOR 1254, Method: STANDARD PLATE
[3] = Test System: AMES SALMONELLA TYPHIMURIUM, Strain/Indicator: TA100, Metabolic Activation: NONE, Method: STANDARD PLATE
[4] = Test System: AMES SALMONELLA TYPHIMURIUM, Strain/Indicator: TA100, Metabolic Activation: RAT, LIVER, S-9, AROCLOR 1254, Method: STANDARD PLATE
[5] = Test System: AMES SALMONELLA TYPHIMURIUM, Strain/Indicator: TA102, Metabolic Activation: NONE, Method: STANDARD PLATE
[6] = Test System: AMES SALMONELLA TYPHIMURIUM, Strain/Indicator: TA1538, Metabolic Activation: NONE, Method: STANDARD PLATE
[7] = Test System: AMES SALMONELLA TYPHIMURIUM, Strain/Indicator: TA1535, Metabolic Activation: NONE, Method: STANDARD PLATE
[8] = Test System: AMES SALMONELLA TYPHIMURIUM, Strain/Indicator: TA1537, Metabolic Activation: NONE, Method: STANDARD PLATE

Measured: mutagenic call

CC1OC(OC2CC(O)(CO)Cc3c(O)c4c(c(O)c32)C(=O)c2ccccc2C4=O)C(I)C(O)C1O (stereo unspecified)
inactive: Test System: AMES SALMONELLA TYPHIMURIUM, Strain/Indicator: TA97A, Metabolic Activation: NONE, Method: STANDARD PLATE inactive; negative | Test System: AMES SALMONELLA TYPHIMURIUM, Strain/Indicator: TA97A, Metabolic Activation: RAT, LIVER, S-9, AROCLOR 1254, Method: STANDARD PLATE inactive; negative | [1] inactive; negative | [2] inactive; negative | [3] inactive; negative | [4] inactive; negative | Test System: AMES SALMONELLA TYPHIMURIUM, Strain/Indicator: TA102, Metabolic Activation: RAT, LIVER, S-9, AROCLOR 1254, Method: STANDARD PLATE inactive; negative
active: [5] active; positive

N=c1cc2oc3cc(N)ccc3nc-2c2ccccc12
inactive: [6] inactive; negative
active: Test System: AMES SALMONELLA TYPHIMURIUM, Strain/Indicator: TA1538, Metabolic Activation: RAT, LIVER, S-9, AROCLOR 1254, Method: STANDARD PLATE active; positive

CCNCC#CC(C)(C)OC(=O)C(O)(c1ccccc1)C1CCCCC1 (stereo unspecified)
inactive: [1] inactive; negative | Test System: AMES SALMONELLA TYPHIMURIUM, Strain/Indicator: TA98, Metabolic Activation: RAT, LIVER, S-9, PHENOBARBITAL AND 5,6-BENZOFLAVONE, Method: STANDARD PLATE inactive; negative | [3] inactive; negative | Test System: AMES SALMONELLA TYPHIMURIUM, Strain/Indicator: TA100, Metabolic Activation: RAT, LIVER, S-9, PHENOBARBITAL AND 5,6-BENZOFLAVONE, Method: STANDARD PLATE inactive; negative | [7] inactive; negative | Test System: AMES SALMONELLA TYPHIMURIUM, Strain/Indicator: TA1535, Metabolic Activation: RAT, LIVER, S-9, PHENOBARBITAL AND 5,6-BENZOFLAVONE, Method: STANDARD PLATE inactive; negative | [8] inactive; negative | Test System: AMES SALMONELLA TYPHIMURIUM, Strain/Indicator: TA1537, Metabolic Activation: RAT, LIVER, S-9, PHENOBARBITAL AND 5,6-BENZOFLAVONE, Method: STANDARD PLATE inactive; negative | Test System: E. COLI, Strain/Indicator: WP2 UVRA, Metabolic Activation: NONE, Method: STANDARD PLATE inactive; negative | Test System: E. COLI, Strain/Indicator: WP2 UVRA, Metabolic Activation: RAT, LIVER, S-9, PHENOBARBITAL AND 5,6-BENZOFLAVONE, Method: STANDARD PLATE inactive; negative

COC(=O)C1(C(N)=O)OC1(C)C(O)C(C)C (stereo unspecified)
active: [2] active; positive
inactive: Test System: AMES SALMONELLA TYPHIMURIUM, Strain/Indicator: TA98, Metabolic Activation: NONE, Method: DISK ASSAY inactive; negative | [1] inactive; negative | Test System: AMES SALMONELLA TYPHIMURIUM, Strain/Indicator: TA98, Metabolic Activation: RAT, LIVER, S-9, AROCLOR 1254, Method: DISK ASSAY inactive; negative | [3] inactive; negative | [4] inactive; negative

CN1CC[C@]23c4c5ccc(O)c4O[C@H]2[C@@H](O)C=C[C@H]3[C@H]1C5
inactive: [2] inactive; negative

O=C(O)c1ccc(NC2OCC(O)C(O)C2O)cc1 (stereo unspecified)
inactive: Test System: AMES SALMONELLA TYPHIMURIUM, Strain/Indicator: TA100, Metabolic Activation: NONE, Method: LIQUID INCUBATION inactive; negative

CCN(CCC#N)c1cc(NC(C)=O)c(-n2nc3c(Br)cc(N)c(Cl)c3n2)cc1OC
active: Test System: AMES SALMONELLA TYPHIMURIUM, Strain/Indicator: TA98, Metabolic Activation: RAT LIVER S-9, AROCLOR 1254, Method: STANDARD PLATE active; positive | Test System: AMES SALMONELLA TYPHIMURIUM, Strain/Indicator: TA100, Metabolic Activation: RAT LIVER S-9, AROCLOR 1254, Method: STANDARD PLATE active; positive | Test System: AMES SALMONELLA TYPHIMURIUM, Strain/Indicator: TA104, Metabolic Activation: RAT LIVER S-9, AROCLOR 1254, Method: STANDARD PLATE active; positive | Test System: AMES SALMONELLA TYPHIMURIUM, Strain/Indicator: YG1024, Metabolic Activation: RAT LIVER S-9, PHENOBARBITAL, 5,6-BENZOFLAVONE (10%), Method: PREINCUBATION active; positive

C=Cc1ccccc1Cl
inactive: Test System: AMES SALMONELLA TYPHIMURIUM, Strain/Indicator: TA97, Metabolic Activation: HAMSTER, LIVER, S-9, AROCLOR 1254 (10 OR 30%), Method: PREINCUBATION inactive; negative | Test System: AMES SALMONELLA TYPHIMURIUM, Strain/Indicator: TA97, Metabolic Activation: NONE, Method: PREINCUBATION inactive; negative | Test System: AMES SALMONELLA TYPHIMURIUM, Strain/Indicator: TA97, Metabolic Activation: RAT, LIVER, S-9, AROCLOR 1254 (10 OR 30%), Method: PREINCUBATION inactive; negative | Test System: AMES SALMONELLA TYPHIMURIUM, Strain/Indicator: TA98, Metabolic Activation: HAMSTER, LIVER, S-9, AROCLOR 1254 (10 OR 30%), Method: PREINCUBATION inactive; negative | Test System: AMES SALMONELLA TYPHIMURIUM, Strain/Indicator: TA98, Metabolic Activation: NONE, Method: PREINCUBATION inactive; negative | Test System: AMES SALMONELLA TYPHIMURIUM, Strain/Indicator: TA98, Metabolic Activation: RAT, LIVER, S-9, AROCLOR 1254 (10 OR 30%), Method: PREINCUBATION inactive; negative | Test System: AMES SALMONELLA TYPHIMURIUM, Strain/Indicator: TA100, Metabolic Activation: HAMSTER, LIVER, S-9, AROCLOR 1254 (10 OR 30%), Method: PREINCUBATION inactive; negative | Test System: AMES SALMONELLA TYPHIMURIUM, Strain/Indicator: TA100, Metabolic Activation: NONE, Method: PREINCUBATION inactive; negative | Test System: AMES SALMONELLA TYPHIMURIUM, Strain/Indicator: TA100, Metabolic Activation: RAT, LIVER, S-9, AROCLOR 1254 (10 OR 30%), Method: PREINCUBATION inactive; negative | Test System: AMES SALMONELLA TYPHIMURIUM, Strain/Indicator: TA1535, Metabolic Activation: HAMSTER, LIVER, S-9, AROCLOR 1254 (10 OR 30%), Method: PREINCUBATION inactive; negative | Test System: AMES SALMONELLA TYPHIMURIUM, Strain/Indicator: TA1535, Metabolic Activation: NONE, Method: PREINCUBATION inactive; negative | Test System: AMES SALMONELLA TYPHIMURIUM, Strain/Indicator: TA1535, Metabolic Activation: RAT, LIVER, S-9, AROCLOR 1254 (10 OR 30%), Method: PREINCUBATION inactive; negative

C1CSCCO1
inactive: [1] inactive; negative | Test System: AMES SALMONELLA TYPHIMURIUM, Strain/Indicator: TA98, Metabolic Activation: S-9, Method: STANDARD PLATE inactive; negative | [3] inactive; negative | Test System: AMES SALMONELLA TYPHIMURIUM, Strain/Indicator: TA100, Metabolic Activation: S-9, Method: STANDARD PLATE inactive; negative | [7] inactive; negative | Test System: AMES SALMONELLA TYPHIMURIUM, Strain/Indicator: TA1535, Metabolic Activation: S-9, Method: STANDARD PLATE inactive; negative | [8] inactive; negative | Test System: AMES SALMONELLA TYPHIMURIUM, Strain/Indicator: TA1537, Metabolic Activation: S-9, Method: STANDARD PLATE inactive; negative | [6] inactive; negative | Test System: AMES SALMONELLA TYPHIMURIUM, Strain/Indicator: TA1538, Metabolic Activation: S-9, Method: STANDARD PLATE inactive; negative

COC(=O)Nc1nc2ccc(C(=O)c3ccccc3)cc2[nH]1
inactive: [1] inactive; negative | [3] inactive; negative
active: [2] active; positive

CCOC(=O)CCl
inactive: [5] inactive; negative | Test System: AMES SALMONELLA TYPHIMURIUM, Strain/Indicator: TA2638, Metabolic Activation: NONE, Method: STANDARD PLATE inactive; negative | Test System: E. COLI, Strain/Indicator: WP2 (PKM101), Metabolic Activation: NONE, Method: STANDARD PLATE inactive; negative | Test System: E. COLI, Strain/Indicator: WP2 UVRA (PKM101), Metabolic Activation: NONE, Method: STANDARD PLATE inactive; negative
